Values belong to the molecule of their own block, whether it stands above or below them.
Legend:
[1] = Urinary excretion of oleuropein metabolites after intake of olive leaf extract (pilot study, LC-MS)
Experimental: Specifically, urine samples were enzymatically treated to hydrolyze the glucuronide and sulfate moieties and release the free forms which were quantified. After sample purification by liquid-liquid extraction, the chromatographic separation was operated on an Acquity™ UPLC® BEH C18 column (1.7 μm, 2.1×150 mm). The mobile phase consisted of 1 mmol/L ammonium acetate buffer and methanol under gradient conditions at a flow-rate of 0.25 mL/min. Hydroxytyrosol, homovanillyl alcohol, and the homovanillyl alcohol isomer 3-hydroxy-4-methoxyphenethanol (alternatively named 3-hydroxy-4-methoxyphenethyl alcohol) were identified and quantified by high performance liquid chromatography-electrospray ionization tandem mass spectrometry (HPLC-ESI-MS/MS) and by comparison with their corresponding chemically synthesized standards.
The circulating concentration and kinetics of absorption of phenolic compounds and their metabolites in biological fluids (plasma or urine) depends on the matrix in which the compounds are ingested, the dose ingested, the time point of sample collection, the microflora of each individual, and the metabolism of each individual. To develop the most appropriate analytical approach for the measurement of OE absorption, a pilot study was conducted. Specifically, five subjects collected urine at baseline (before intake of the olive leaf extract) and between the intakes of two capsules of the olive leaf extract.
The analytical method (sample preparation, deconjugation conditions, chromatographic detection and separation) was first developed by spiking chemical standards which were commercially available in commercial urine. The deconjugation conditions were determined by using the conjugates available, hydroxytyrosol sulfate and homovanillyl alcohol glucuronide. The commercially available chemical standards were 3,4-Dihydroxybenzoic acid; 3,4-Dihydroxyphenylacetic acid; Homovanillic acid; Homovanillyl alcohol; Homovanillyl alcohol glucuronide (vanillyl methanol glucuronide); Hydroxytyrosol; Hydroxytyrosol sulfate (hydroxytyrosol sulfate triethylammonium salt); and Vanillic acid.
Briefly, the sample preparation consisted of a liquid-liquid extraction with ethyl acetate after a protein precipitation using acidified methanol.
Regarding chromatographic analysis, Oleuropein metabolites were separated by reversed-phase ultra-performance liquid chromatography using a C18-column Acquity UPLC BEH C18 1.7 μm, 2.1 mm×150 mm, (Waters AG, Switzerland). The system consisted of a LC system Acquity™ UPLC® (Waters AG, Switzerland) coupled with a Qtrap 5500 Mass spectrometer detector equipped with an electrospray ionization source (ABSciex, Switzerland). Detection was performed in the negative operating mode at unit resolution.
Specifically, a preliminary analysis of the urine samples collected after intake of the olive leaf extract was performed by electrospray ionization (ESI) in the negative ion mode, scanning for the different [M−H]^− ions at the theoretical m/z of the expected oleuropein metabolites and conjugates (Table 1).
Relative amount of the metabolites identified was first evaluated to clarify if their excretion in urine was increasing after intake of the olive leaf extract. This evaluation was based on the measurement of the area under the corresponding chromatographic peak, which reflects the amount.

Collagen-II = Collagen-II gene expression in chondrocytes in alginate beads, IL1-α stimulation; format: cell-based; conditions: two-hour pre-treatment, twenty-four hour IL1-α stimulation; polyphenols at 10 μM; FIG. 16A
From the text: (§1) Chondrocytes in alginate beads were subjected to a two-hour polyphenols pre-treatment followed by a twenty-four hour IL1-α stimulation.
Regarding FIG. 16A, Collagen-II is an anabolism-related gene for major structural components of the extracellular matrix of joints.

[2] = tested on: inducible isoform of nitric oxide synthase (iNOS); assay: iNOS gene expression in chondrocytes (anti-inflammatory effect); format: cell-based; conditions: FIG. 17A
From the text: as §1
(§2) Then the anti-inflammatory effect of oleuropein metabolites in chondrocytes was studied.
Regarding FIG. 17A, the inducible isoform of nitric oxide synthase (iNOS) is an inflammation-related gene linked to NO production.

inflamed chondrocytes [3] = assay: Collagen in culture media of inflamed chondrocytes (catabolism); format: cell-based; conditions: FIG. 18B
From the text: as §1
(§3) Next it was shown that oleuropein metabolites prevent collagen breakdown in inflamed chondrocytes (FIGS. 18A and 18B). In this regard, collagen in extra-cellular matrix corresponds to the collagen synthesized by the cells, i.e., anabolism. […] Collagen in culture media corresponds to the collagen degraded by cells and released in the media, i.e., […].

chondrocytes = assay: Effects of oleuropein metabolites on chondrocytes (overall); format: cell-based; conditions: synthetic form; comparison with hydroxytyrosol
Experimental: As also set forth in detail later herein, several metabolites of oleuropein were tested for their effects on chondrocytes.
as §1

cyclooxygenase-2 (COX-2) = assay: COX-2 gene expression in chondrocytes (anti-inflammatory effect); format: cell-based; conditions: FIG. 17B
Experimental: as §1, §2
Regarding FIG. 17B, cyclooxygenase-2 (COX-2) is another inflammation-related gene. It is linked to the Prostaglandin E2 (PGE2) pathway. OLP, EA and HVOH were efficient at 2 μM. OLP, OEA and HVOH were efficient at 10 μM.

inflamed chondrocytes [4] = assay: Collagen in extra-cellular matrix of inflamed chondrocytes (anabolism); format: cell-based; conditions: FIG. 18A
From the text: as §1, §3

[5] = urine after intake of olive leaf extract, LC-MS, MS2/MS3

Molecule: O=C(O)c1ccc(O)c(O)c1 [3,4-dihydroxybenzoic acid]
change of amount in urine (area under the peak) after intake of olive leaf extract versus basal ([1]; in vivo): do not increase
detection and identification in urine ([1]; in vivo): detected in samples after intake of the olive leaf extract and in basal samples

Molecule: O=C(O)Cc1ccc(O)c(O)c1 [3,4-dihydroxyphenylacetic acid, 3,4-Dihydroxyphenylacetic acid]
change of amount in urine (area under the peak) after intake of olive leaf extract versus basal ([1]; in vivo): do not increase
detection and identification in urine ([1]; in vivo): detected in samples after intake of the olive leaf extract and in basal samples

Molecule: COc1cc(CCO)ccc1O[C@@H]1O[C@H](C(=O)O)[C@@H](O)[C@H](O)[C@H]1O [Homovanillyl alcohol glucuronide]
Number of forms confirmed in urine ([1]; in vivo): 1
detection and identification in urine ([1]; in vivo): Presence & identity confirmed

Molecule: COc1cc(CC(=O)O)ccc1O [homovanillic acid, Homovanillic acid]
change of amount in urine (area under the peak) after intake of olive leaf extract versus basal ([1]; FIG. 15, subjects 1 to 5): do not increase

Molecule: COc1ccc(CCO)cc1O [homovanillyl alcohol isomer, 3-hydroxy-4-methoxyphenethanol]
Collagen-II gene expression (protective effect) (Collagen-II): significant effect
iNOS gene expression (protective effect) ([2]; 2 μM): significant effect
iNOS gene expression (protective effect) ([2]; 10 μM): significant effect
collagen in culture media (collagen degraded and released, catabolism) (inflamed chondrocytes [3]): potent anti-breakdown effect (improved over control)
effects on chondrocytes (chondrocytes): more effective than hydroxytyrosol

Molecule: COc1cc(C(=O)O)ccc1O [vanillic acid, Vanillic acid]
change of amount in urine (area under the peak) after intake of olive leaf extract versus basal ([1]; human, in vivo): strongly increases in urine of subjects 2 and 4, but not as much in subjects 1, 3 and 5
detection and identification in urine [1, 5]: detected in samples after intake of the olive leaf extract and in basal samples

Molecule: Elenolic acid sulfate [EA-S]
detection and identification in urine ([1]; in vivo): Neither ion of elenolic acid sulfate nor of elenolic acid glucuronide (EA-S or EA-G) could be detected

Molecule: Hydroxytyrosol sulfate
Number of forms confirmed in urine ([1]; urine after intake of olive leaf extract): 1
detection and identification in urine [1, 5]: Presence & identity confirmed

More lines, main results first:

Number of forms confirmed in urine ([1]; human, in vivo): 2
detection and identification in urine ([1]; in vivo): Presence & identity confirmed
form excreted in urine ([1]; in vivo): mainly as conjugated form
COX-2 gene expression (cyclooxygenase-2 (COX-2); 2 μM): efficient
COX-2 gene expression (cyclooxygenase-2 (COX-2); 10 μM): efficient
Molecule: COc1cc(CCO)ccc1O [homovanillyl alcohol]
change of amount in urine (area under the peak) after intake of olive leaf extract versus basal ([1]; in vivo): specifically increase after intake of olive leaf extract
collagen in culture media (collagen degraded and released, catabolism) (inflamed chondrocytes [3]): potent anti-breakdown effect (improved over control)
effects on chondrocytes (chondrocytes): more effective than hydroxytyrosol

Number of forms confirmed in urine ([1]; human, in vivo): 1
average of the area under the chromatographic peak in urine ([1]; human, in vivo): 7.7×10^6
detection and identification in urine ([1]; in vivo): Presence & identity confirmed
form excreted in urine ([1]; in vivo): mainly as conjugated form
relative abundance excreted in urine ([1]; in vivo): more abundant than HVOH
Molecule: OCCc1ccc(O)c(O)c1 [hydroxytyrosol, 3,4-dihydroxyphenylethanol, reference compound]
change of amount in urine (area under the peak) after intake of olive leaf extract versus basal ([1]; in vivo): specifically increase after intake of olive leaf extract

Number of forms confirmed in urine ([1]; in vivo): 1
average of the area under the chromatographic peak in urine ([1]; in vivo): 2×10^6
COX-2 gene expression (cyclooxygenase-2 (COX-2); 10 μM): efficient
Molecule: CC=C1C(O)OC=C(C(=O)OC)C1CC(=O)OCCc1ccc(O)c(O)c1 (stereo not drawn) [oleuropein aglycone, 3,4-dihydroxyphenylethanol-elenolic acid]
collagen in extra-cellular matrix (collagen synthesized by the cells, anabolism) (inflamed chondrocytes [4]): protective effect

COX-2 gene expression (cyclooxygenase-2 (COX-2); 2 μM): efficient
Molecule: Elenolic acid [EA]
detection and identification in urine ([1]; in vivo): none of them could be confirmed as being EA
collagen in culture media (collagen degraded and released, catabolism) (inflamed chondrocytes [3]): potent anti-breakdown effect (improved over control)

detection and identification in urine ([1]; in vivo): Not detected
Molecule: Methylated oleuropein aglycone

Number of forms confirmed in urine ([1]; in vivo): 2
detection and identification in urine ([1]; in vivo): Presence & identity confirmed
Molecule: Oleuropein aglycone glucuronide

Number of forms confirmed in urine ([1]; in vivo): 1
Molecule: Oleuropein aglycone sulfate
